Results on 32 compounds are retold here after patent US5801180A, “Quinazoline derivatives” (priority 1991, dated 1998).

The test deals with T1, cGMP-PDE prepared from the swine aeorta (Sus scrofa, UniProt A0A287B475).
T1 construct: The swine aeorta was sliced; from tissue; host or cells: swine aorta, 100000×g supernatant, DEAE-Toyopearl 650S fraction
The experiment in a line: Enzyme inhibiting action with the use of cGMP-PDE prepared from the swine aorta. Type of test: biochemical. To be noted: CaM-independent cGMP-PDE, 1 mM EGTA, 1 μM cGMP substrate, DMSO 4% or below. As to the method: Enzyme inhibiting action with the use of cGMP-PDE prepared from the swine aeorta
The enzymatic activity of the cGMP-PDE prepared from the swine aeorta was determined according to the method of Thompson et al. ^(1). The enzymatic activity thereof was determined in the presence of 1 mM EGTA by the use of 1 μM cGMP as a substrate. The compound of the present invention was dissolved in DMSO, added to the reaction liquid and examined for the inhibitory activity. The final concentration of DMSO in the reaction liquid was adjusted to 4% or below. (1) Thompson, W. J. and Strada, S. J., Cyclic Nucleotide Phosphodiesterase (PDE), in Methods of Enzymatic Analysis, vol 4, p.127-234, 1984.
The swine aeorta was sliced, followed by the addition of 10 times by volume as much Buffer A (20 mM Tris/HCl, 2 mM Mg acetate, 1 mM Dithiothreitol, 5 mM EDTA, 1400 TIU/liter aprotinin, 10 mg/liter leupeptin, 1 mM benzamidine, 0.2 mM PMSF, pH 7.5). The obtained mixture was homogenized and the homogenate was centrifuged at 100000×g for one hour. The obtained supernatant was supplied a DEAE-Toyopearl 650S (Tosoh, Tokyo, Japan) column. After the column was washed with Buffer B (50 mM Tris/HCl, 0.1 mM EGTA, 2 mM Mg acetate, 1 mM Dithiothreitol, 0.2 mM PMSF, pH 7.5), gradient elution with 0.05 to 0.4M NaCl was conducted. Thus, CaM-independent cGMP-PDE fractions were obtained.
Usually IC50 stands for the concentration that inhibits the measured activity by half. Higher therefore signals a need for much substance. `COc1nc(NCc2ccc3c(c2)OCO3)c2cc(Cl)ccc2n1` [Example 165, 2-Methoxy-4-(3,4-methylenediokybenzyl)amino-6-chloroquinazoline] displayed an IC50 of 16 nM.
The figure for `COc1nc(NCc2ccc3c(c2)OCO3)c2cc(C#N)ccc2n1` [Example 166, 2-Methoxy-4-(3,4-methylenedioxybenzyl)amino-6-cyanoquinazoline] is 26 nM; for `COc1nc(NCc2ccc3c(c2)OCO3)c2cc(OC)c(OC)c(OC)c2n1` [Example 167, 2,7,8-Tetramethoxy-4-(3,4-methylenedioxybenzyl)aminoquinazoline] it is 560 nM.
The figure for `OCCOc1nc(NCc2ccc3c(c2)OCO3)c2cc(Cl)ccc2n1` [Example 168] is 11 nM; for `N#Cc1ccc2nc(OCCO)nc(NCc3ccc4c(c3)OCO4)c2c1` [Example 169, 2-(2-Hydroxyethoxy)-4-(3,4-methylenedioxybenzyl)amino-6-cyanoquinazoline] it is 11 nM.
On to `COCCOc1nc(NCc2ccc3c(c2)OCO3)c2cc(OC)ccc2n1` [Example 170, 2-(2-Methoxyethoxy)-4-(3,4-methylenedioxybenzyl)amino-6-methoxyquinazoline], for which half-maximal inhibition (IC50) was put at 29 nM.
For `COCCOc1nc(NCc2ccc3nc[nH]c3c2)c2cc(C#N)ccc2n1` [Example 171, 2-(2-Methoxyethoxy)-4-(benzimidazol-5-yl)methylamino-6-cyanoquinazoline], the IC50 was 0.4 nM.
The figure for `CCCOc1nc(NCc2ccc3c(c2)OCO3)c2cc(OC)c(OC)c(OC)c2n1` [Example 172, 2-Propoxy-4-(3,4-methylenedioxybenzyl)amino-6,7,8-trimethoxyquinazoline] is 95 nM.
The figure for `OCCCCOc1nc(NCc2ccc3c(c2)OCO3)c2cc(Cl)ccc2n1` [Example 174, 2-(4-Hydroxybutoxy)-4-(3,4-methylenedioxybenzyl)amino-6-chloroquinazoline] is 4 nM; for `COCCCCOc1nc(NCc2ccc3c(c2)OCO3)c2cc(Cl)ccc2n1` [Example 175, 2-(4-Methoxybutoxy)-4-(3,4-methylenedioxybenzyl)amino-6-chloroquinazoline] it is 6 nM; for `OCCCCCCOc1nc(NCc2ccc3c(c2)OCO3)c2cc(Cl)ccc2n1` [Example 176] it is 3 nM.
The figure for `Oc1nc(NCc2ccc3c(c2)OCO3)c2cc(Cl)ccc2n1` [Example 177, 2-Hydroxy-4-(3,4-methylenedioxybenzyl)amino-6-chloroquinazoline] is 12 nM.
Consider `OCC(O)COc1nc(NCc2ccc3c(c2)OCO3)c2cc(Cl)ccc2n1` (centres unmarked) [Example 178, 2-(2,3-Dihydroxypropyl)oxy-4-(3,4-methylenedioxybenzyl)amino-6-chloroquinazoline], for which the IC50 came out at 11 nM.
As for `N#Cc1ccc2nc(OCCCC(=O)O)nc(NCc3ccc4c(c3)OCO4)c2c1` [Example 179, 2-(3-Carboxypropyl)oxy-4-(3,4-methylenedioxybenzyl)amino-6-cyanoquinazoline], the figure is 2 nM; as for `CSc1nc(NCc2ccc3c(c2)OCO3)c2cc(Cl)ccc2n1` [Example 180, 2-Methylthio-4-(3,4-methylenedioxybenzyl)amino-6-chloroquinazoline], 9 nM.
As for `N#Cc1ccc2nc(N3CCOCC3)nc(NCc3ccc4c(c3)OCO4)c2c1` [Example 181, 2-Morpholino-4-(3,4-methylenedioxybenzyl)amino-6-cyanoquinazoline], the figure is 5 nM.
As for `Clc1ccc2nc(N3CCOCC3)nc(NCc3ccc4c(c3)OCO4)c2c1` [Example 182, 2-Morpholino-4-(3,4-methylenedioxybenzyl)amino-6-chloroquinazoline], the figure is 8 nM.
With `COc1ccc(CNc2nc(N3CCOCC3)nc3ccc(C#N)cc23)cc1Cl` [Example 183, 2-Morpholino-4-(3-chloro-4-methoxybenzyl)amino-6-cyanoquinazoline], the IC50 was 0.4 nM.
The figure for `N#Cc1ccc2nc(N3CCC(O)CC3)nc(NCc3ccc4c(c3)OCO4)c2c1` [Example 184, 2-(4-Hydroxypiperidino)-4-(3,4-methylenedioxybenzyl)amino-6-cyanoquinazoline] is 6 nM; for `OC1CCN(c2nc(NCc3ccc4c(c3)OCO4)c3cc(Cl)ccc3n2)CC1` [Example 185, 2-(4-Hydroxypiperidino)-4-(3,4-methylenedioxybenzyl)amino-6-chloroquinazoline] it is 10 nM.
Turning to `COc1cc2c(NCc3ccc4c(c3)OCO4)nc(NCCO)nc2c(OC)c1OC` [Example 187, 2-(2-Hydroxyethyl)amino-4-(3,4-methylenedioxybenzyl)amino-6,7,8-trimethoxyquinazoline], the IC50 worked out at 120 nM.
The figure for `OCCNc1nc(NCc2ccc3c(c2)OCO3)c2cc(Cl)ccc2n1` [Example 188, 2-(2-Hydroxyethyl)amino-4-(3,4-methylenedioxybenzyl)amino-6-chloroquinazoline] is 29 nM.
In the case of `CN(CCO)c1nc(NCc2ccc3c(c2)OCO3)c2cc(Cl)ccc2n1` [Example 189, 2-[N-(2-Hydroxyethyl)-N-methylamino]-4-(3,4-methylenedioxybenzyl)amino-6-chloroquinazoline], the concentration for half-maximal inhibition (IC50) is 16 nM.
The figure for `OCC1CCCN1c1nc(NCc2ccc3c(c2)OCO3)c2cc(Cl)ccc2n1` (centres unmarked) [Example 190, 2-(9-Hydroxymethylpyrrolidin-1-yl)-4-(3,4-methylenedioxyybenzyl)amino-6-chloroquinazoline] is 5 nM; for `OCCN(CCO)c1nc(NCc2ccc3c(c2)OCO3)c2cc(Cl)ccc2n1` [Example 191, 2-Bis(2-hydroxyethyl)amino-4-(3,4-methylenedioxybenzyl)amino-6-chloroquinazoline] it is 19 nM.
In the case of `Clc1ccc2nc(-n3ccnc3)nc(NCc3ccc4c(c3)OCO4)c2c1` [Example 192, 2-(1-Imidazolyl)-4-(3,4-methylenedioxybenzyl)amino-6-chloroquinazoline], the midpoint of inhibition, the IC50, lay at 20 nM.
The figure for `N#Cc1ccc2nc(-n3ccnc3)nc(NCc3ccc4c(c3)OCO4)c2c1` [Example 193, 2-(Imidazol-1-yl)-4-(3,4-methylenedioxybenzyl)amino-6-cyanoquinazoline] is 0.8 nM.
Compound `CCCCCNc1nc(NCc2ccc3c(c2)OCO3)c2cc(Cl)ccc2n1` [Example 194, 2-Pentylamino-4-(3,4-methylenedioxybenzyl)amino-6-chloroquinazoline] returned an IC50 of 4 nM.
The figure for `NC(=O)CNc1nc(NCc2ccc3c(c2)OCO3)c2cc(Cl)ccc2n1` [Example 197] is 66 nM; for `Nc1nc(NCc2ccc3c(c2)OCO3)c2cc(Cl)ccc2n1` [Example 200, 2-Amino-4-(3,4-methylenedioxybenzyl)amino-6-chloroquinazoline] it is 64 nM.
As for `N#Cc1ccc2nc(N)nc(NCc3ccc4c(c3)OCO4)c2c1` [Example 201, 2-Amino-4-(3,4-methylenedioxybenzyl)amino-6-cyanoquinazoline], the figure is 49 nM; as for `CNC(=O)Nc1nc(NCc2ccc3c(c2)OCO3)c2cc(Cl)ccc2n1` [Example 202, 2-(Methylcarbamoyl)amino-4-(3,4-methylenedioxybenzyl)amino-6-chloroquinazoline], 2 nM.
